This note sets out measurements from PMC6819783, “Cohnella sp. A01 laccase: thermostable, detergent resistant, anti-environmental and industrial pollutants enzyme” (Heliyon, 2019).

The assay deals with T1, Cohnella sp. A01 laccase.
T1 construct: gene multicopper oxidase; recombinant in E. coli BL21, pET-26b(+) NcoI/XhoI, His-tagged, Ni-Sepharose purified
Description: oxidation followed at […] nm, Michaelis-Menten fit. In kind it is biochemical. The conditions noted are these: 0.3-2.5 mM DMP; phosphate buffer; assay pH 8 and 90 °C (optimum; not restated for the kinetics).

For `COc1cccc(OC)c1O` [2,6-dimethoxyphenol], the Km is 686 µM.

The term Km denotes the concentration of substrate that gives half-maximal velocity.
